Test results from patent US20240271104A1, “COLONIZATION OF SURFACES WITH BIOLOGICAL CELLS” (Eberhard Karls Universität Tübingen Medizinische Fakultät, priority 2021, published 2024).

Tests used:
Format in all cases: cell-based, human
[1] = system: endothelial layer on HFMs; assay: Reactivity of the endothelial layer on HFMs to an inflammatory stimulus (qRT-PCR of adhesion molecules); details: 50 ng/mL TNF-α, 4 hours, mRNA normalized to GAPDH
Description: Endothelialized HFMs were incubated for 4 hours without or with 50 ng/mL tumor necrosis factor α (TNF-α, Sigma-Aldrich) in EGM™-2 endothelial cell growth medium without hydrocortisone. After incubation, HFMs were washed twice with DPBS and total RNA was isolated. Expression of the activation markers, endothelial leukocyte adhesion molecule 1 (E-selectin), vascular cell adhesion molecule 1 (VCAM-1) and intercellular adhesion molecule 1 (ICAM-1), was detected by qRT-PCR.
After 40 cycles, melting was performed.

HUVECs [2] = assay: PrestoBlue cell viability assay after metabolic labeling; details: 50 μM Ac4ManNAz 48 h
Description: The influence of metabolic labeling on the viability of HUVECs was investigated 48 hours after labeling with 50 µM Ac4ManNAz using the PrestoBlue assay (Invitrogen, Carlsbad, USA). For this purpose, 500 μL of 1× Presto Blue cell viability reagent was added to each well of a 6-well plate and incubated for 1.5 h at 37° C. The fluorescence intensity of 100 μL supernatant was measured in triplicate at an excitation wavelength of 530 nm and an emission wavelength of 600 nm using a multimode microplate reader (Mithras LB 940, Berthold Technologies, Bad Wildbad, Germany).

HUVECs [3] = assay: Metabolic labeling of HUVECs with azide groups, detection with DBCO-Sulfo-Cy3 by flow cytometry; details: 50 μM Ac4ManNAz 48 h, then 5 μM DBCO-Sulfo-Cy3 1 h
Description: To functionalize the cell surface of HUVECs with azide groups, 2×10^5 HUVECs per well of a 6-well plate were seeded and treated with or without 50 μM N-azidoacetylmannosamine-tetraacylated (Ac4ManNAz, Sigma Aldrich) in 2 ml medium for 48 h at 37° C. with 5% CO2. To detect the formed azido groups, the cells were washed with DPBS without Ca^2+/Mg^2+ and incubated with 5 μM DBCO-Sulfo-Cy3 (Jena Bioscience, Germany) in DPBS with Ca^2+/Mg^2+ for 1 h at 37° C. and 5% CO2. Cells were washed three times with 10 ml DPBS, detached with trypsin/EDTA (0.04%/0.03%) and centrifuged at 300×g for 5 min. The cell pellet was resuspended in 0.5 ml DPBS, and Cy3 labeling of 10,000 cells was analyzed by flow cytometry (FACS SCAN, BD, Heidelberg, Germany). In addition to the flow cytometric analyses, cells were stained for 30 minutes with ActinGreen™ 488 ReadyP-robes® reagent (Invitrogen) for the cytoskeleton and for 5 minutes with 0.2 μg/ml DAPI (Sigma Aldrich) to visualize the nuclei.

Compound | E-selectin expression compared to non-stimulated endothelial layer [1] | ICAM-1 expression compared to non-stimulated endothelial layer [1] | VCAM-1 expression compared to non-stimulated endothelial layer [1] | effect on viability of HUVECs (HUVECs [2]) | Cy3-positive cells (N3 groups on the cell surface) (HUVECs [3])
tumor necrosis factor α [TNF-α] | 199 fold | 162 fold | 328 fold | – | –
CC(=O)OC[C@H]1OC(OC(C)=O)[C@@H](NC(=O)CN=[N+]=[N-])[C@@H](OC(C)=O)[C@@H]1OC(C)=O (some centres unmarked) [Ac4ManNAz, N-azidoacetylmannosamine-tetraacylated] | – | – | – | no effect | about 98%
